According to the supplement of paper PMC13207355:

How the values were obtained:
Settings in all cases: exposure time: 72 h
E28 [1] = patient-derived glioblastoma stem cells of classical subtype; experiment: surviving fraction (nuclei count normalised to DMSO); higher = more cells surviving (less toxic)
E13 [2] = patient-derived glioblastoma stem cells of classical subtype; experiment: as above
E57 [3] = patient-derived glioblastoma stem cells of mesenchymal subtype; experiment: as above
E21 [4] = patient-derived glioblastoma stem cells of mesenchymal subtype; experiment: as above
E31 [5] = patient-derived glioblastoma stem cells of proneural subtype; experiment: as above
FT3469 [6] = normal neural stem cell line; experiment: as above
E34 [7] = patient-derived glioblastoma stem cells of proneural subtype; experiment: as above
E28 [8] = experiment: phenotypic distance (Euclidean, principal components) from DMSO controls (arbitrary units); higher = stronger morphological change
E13 [9] = experiment: as above
E57 [10] = experiment: as above
E21 [11] = experiment: as above
E31 [12] = experiment: as above
FT3469 [13] = experiment: as above
E34 [14] = experiment: as above
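Wherever phenotypic distance (Euclidean, principal components) from DMSO controls is given: cell Painting imaging in 384-well plates, CellProfiler features reduced to at least 20 principal components, Euclidean distance versus same-plate DMSO vehicle wells (0.1% v/v), median over six images per well.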
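Wherever surviving fraction (nuclei count normalised to DMSO) is given: nuclei counted by high-content imaging of Hoechst-stained cells in laminin-coated 384-well plates, relative to 0.1% DMSO vehicle wells, with staurosporine as cell-death control.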

COc1ccc([C@@H]2CC(=O)c3c(O)cc(O[C@@H]4O[C@H](CO[C@@H]5O[C@@H](C)[C@H](O)[C@@H](O)[C@H]5O)[C@@H](O)[C@H](O)[C@H]4O)cc3O2)cc1O [Hesperidin]
Settings	phenotypic distance	surviving fraction
E13 [2], 4.1 nM	–	0.863
E13 [2], 12.3 nM	–	0.95
E13 [2], 37 nM	–	0.946
E13 [2], 111.1 nM	–	0.963
E13 [2], 333.3 nM	–	0.941
E13 [2], 1000 nM	–	1.04
E13 [2], 3000 nM	–	0.96
E13 [9], 4.1 nM	0.619	–
E13 [9], 12.3 nM	0.532	–
E13 [9], 37 nM	0.507	–
E13 [9], 111.1 nM	0.462	–
E13 [9], 333.3 nM	0.682	–
E13 [9], 1000 nM	0.572	–
E13 [9], 3000 nM	0.438	–
E21 [4], 4.1 nM	–	0.916
E21 [4], 12.3 nM	–	0.952
E21 [4], 37 nM	–	0.918
E21 [4], 111.1 nM	–	1.01
E21 [4], 333.3 nM	–	0.971
E21 [4], 1000 nM	–	1.02
E21 [4], 3000 nM	–	0.969
E21 [11], 4.1 nM	0.723	–
E21 [11], 12.3 nM	1.01	–
E21 [11], 37 nM	0.467	–
E21 [11], 111.1 nM	0.825	–
E21 [11], 333.3 nM	0.905	–
E21 [11], 1000 nM	0.753	–
E21 [11], 3000 nM	1.01	–
E28 [1], 4.1 nM	–	1.02
E28 [1], 12.3 nM	–	1.13
E28 [1], 37 nM	–	1.02
E28 [1], 111.1 nM	–	0.97
E28 [1], 333.3 nM	–	1.02
E28 [1], 1000 nM	–	1.13
E28 [1], 3000 nM	–	0.967
E28 [8], 4.1 nM	0.47	–
E28 [8], 12.3 nM	0.575	–
E28 [8], 37 nM	0.783	–
E28 [8], 111.1 nM	0.619	–
E28 [8], 333.3 nM	0.437	–
E28 [8], 1000 nM	0.666	–
E28 [8], 3000 nM	1.36	–
E31 [5], 4.1 nM	–	0.929
E31 [5], 12.3 nM	–	1.11
E31 [5], 37 nM	–	1.1
E31 [5], 111.1 nM	–	0.966
E31 [5], 333.3 nM	–	1.09
E31 [5], 1000 nM	–	1.04
E31 [5], 3000 nM	–	0.936
E31 [12], 4.1 nM	0.45	–
E31 [12], 12.3 nM	0.684	–
E31 [12], 37 nM	0.77	–
E31 [12], 111.1 nM	0.32	–
E31 [12], 333.3 nM	0.513	–
E31 [12], 1000 nM	0.709	–
E31 [12], 3000 nM	0.756	–
E34 [7], 4.1 nM	–	1.02
E34 [7], 12.3 nM	–	0.86
E34 [7], 37 nM	–	0.979
E34 [7], 111.1 nM	–	1.21
E34 [7], 333.3 nM	–	1.01
E34 [7], 1000 nM	–	0.93
E34 [7], 3000 nM	–	1.06
E34 [14], 4.1 nM	0.666	–
E34 [14], 12.3 nM	0.79	–
E34 [14], 37 nM	0.595	–
E34 [14], 111.1 nM	1.02	–
E34 [14], 333.3 nM	0.595	–
E34 [14], 1000 nM	0.635	–
E34 [14], 3000 nM	0.793	–
E57 [3], 4.1 nM	–	1
E57 [3], 12.3 nM	–	1.12
E57 [3], 37 nM	–	0.932
E57 [3], 111.1 nM	–	0.961
E57 [3], 333.3 nM	–	0.943
E57 [3], 1000 nM	–	0.925
E57 [3], 3000 nM	–	0.915
E57 [10], 4.1 nM	0.43	–
E57 [10], 12.3 nM	0.735	–
E57 [10], 37 nM	0.539	–
E57 [10], 111.1 nM	0.532	–
E57 [10], 333.3 nM	0.511	–
E57 [10], 1000 nM	0.762	–
E57 [10], 3000 nM	0.602	–
FT3469 [6], 4.1 nM	–	1.13
FT3469 [6], 12.3 nM	–	1.1
FT3469 [6], 37 nM	–	1.05
FT3469 [6], 111.1 nM	–	1.15
FT3469 [6], 333.3 nM	–	0.937
FT3469 [6], 1000 nM	–	1.01
FT3469 [6], 3000 nM	–	0.981
FT3469 [13], 4.1 nM	0.821	–
FT3469 [13], 12.3 nM	1.41	–
FT3469 [13], 37 nM	0.766	–
FT3469 [13], 111.1 nM	1.05	–
FT3469 [13], 333.3 nM	0.567	–
FT3469 [13], 1000 nM	0.989	–
FT3469 [13], 3000 nM	0.744	–

NCCCP(=O)(O)O [3-Aminopropylphosphonic acid]
Settings	phenotypic distance	surviving fraction
E13 [2], 4.1 nM	–	0.801
E13 [2], 12.3 nM	–	0.888
E13 [2], 37 nM	–	1
E13 [2], 111.1 nM	–	0.872
E13 [2], 333.3 nM	–	0.982
E13 [2], 1000 nM	–	0.884
E13 [2], 3000 nM	–	0.962
E13 [9], 4.1 nM	0.873	–
E13 [9], 12.3 nM	0.485	–
E13 [9], 37 nM	1.1	–
E13 [9], 111.1 nM	0.795	–
E13 [9], 333.3 nM	1.09	–
E13 [9], 1000 nM	0.46	–
E13 [9], 3000 nM	0.816	–
E21 [4], 4.1 nM	–	0.806
E21 [4], 12.3 nM	–	0.98
E21 [4], 37 nM	–	0.902
E21 [4], 111.1 nM	–	0.886
E21 [4], 333.3 nM	–	1.08
E21 [4], 1000 nM	–	1
E21 [4], 3000 nM	–	0.86
E21 [11], 4.1 nM	1.29	–
E21 [11], 12.3 nM	5.29	–
E21 [11], 37 nM	0.988	–
E21 [11], 111.1 nM	1.15	–
E21 [11], 333.3 nM	1.08	–
E21 [11], 1000 nM	0.704	–
E21 [11], 3000 nM	0.925	–
E28 [1], 4.1 nM	–	0.762
E28 [1], 12.3 nM	–	0.907
E28 [1], 37 nM	–	0.775
E28 [1], 111.1 nM	–	0.984
E28 [1], 333.3 nM	–	0.931
E28 [1], 1000 nM	–	0.888
E28 [1], 3000 nM	–	0.713
E28 [8], 4.1 nM	0.627	–
E28 [8], 12.3 nM	0.887	–
E28 [8], 37 nM	1.05	–
E28 [8], 111.1 nM	0.933	–
E28 [8], 333.3 nM	1.07	–
E28 [8], 1000 nM	0.732	–
E28 [8], 3000 nM	1.53	–
E31 [5], 4.1 nM	–	1.14
E31 [5], 12.3 nM	–	0.932
E31 [5], 37 nM	–	1
E31 [5], 111.1 nM	–	0.983
E31 [5], 333.3 nM	–	1.05
E31 [5], 1000 nM	–	0.771
E31 [5], 3000 nM	–	0.945
E31 [12], 4.1 nM	0.65	–
E31 [12], 12.3 nM	0.816	–
E31 [12], 37 nM	0.948	–
E31 [12], 111.1 nM	0.488	–
E31 [12], 333.3 nM	0.824	–
E31 [12], 1000 nM	0.792	–
E31 [12], 3000 nM	0.929	–
E34 [7], 4.1 nM	–	0.923
E34 [7], 12.3 nM	–	1.06
E34 [7], 37 nM	–	0.998
E34 [7], 111.1 nM	–	1.09
E34 [7], 333.3 nM	–	1.08
E34 [7], 1000 nM	–	1.05
E34 [7], 3000 nM	–	1.05
E34 [14], 4.1 nM	0.981	–
E34 [14], 12.3 nM	3.38	–
E34 [14], 37 nM	1.08	–
E34 [14], 111.1 nM	0.945	–
E34 [14], 333.3 nM	0.527	–
E34 [14], 1000 nM	4.28	–
E34 [14], 3000 nM	0.559	–
E57 [3], 4.1 nM	–	0.924
E57 [3], 12.3 nM	–	0.912
E57 [3], 37 nM	–	1.01
E57 [3], 111.1 nM	–	1.06
E57 [3], 333.3 nM	–	0.959
E57 [3], 1000 nM	–	0.941
E57 [3], 3000 nM	–	1.07
E57 [10], 4.1 nM	1.04	–
E57 [10], 12.3 nM	0.788	–
E57 [10], 37 nM	0.764	–
E57 [10], 111.1 nM	0.744	–
E57 [10], 333.3 nM	0.772	–
E57 [10], 1000 nM	1.04	–
E57 [10], 3000 nM	1.21	–
FT3469 [6], 4.1 nM	–	0.65
FT3469 [6], 12.3 nM	–	0.955
FT3469 [6], 37 nM	–	0.892
FT3469 [6], 111.1 nM	–	0.941
FT3469 [6], 333.3 nM	–	1.09
FT3469 [6], 1000 nM	–	1.08
FT3469 [6], 3000 nM	–	1.06
FT3469 [13], 4.1 nM	1.45	–
FT3469 [13], 12.3 nM	0.83	–
FT3469 [13], 37 nM	0.983	–
FT3469 [13], 111.1 nM	0.685	–
FT3469 [13], 333.3 nM	0.68	–
FT3469 [13], 1000 nM	0.784	–
FT3469 [13], 3000 nM	2.45	–
